This is an account of results in patent publication US20160045505A1, “COMPOUNDS AND COMPOSITIONS FOR THE TREATMENT OF PARASITIC DISEASES” (NOVARTIS AG, priority 2013, published 2016).

Test [1] relates to L. donovani HU3 strain in mouse peritoneal macrophages. The experiment in a line: Assay for proliferation of Leishmania parasites in infected mouse peritoneal macrophages (SybrGreen staining, high-content imaging, 5 days). The class given is cell-based, Leishmania donovani. The settings on record: Leishmania donovani, Peritoneal macrophage, L. donovani in mouse peritoneal macrophages; read-out: L. donovani Macrophage EC50.

For test [2], the system named is Trypanosoma cruzi amastigotes (Tulahuen strain expressing Lac-Z) cultured in 3T3 fibroblast cells. Put plainly: microbe, parasite or virus in culture. The format is cell-based. The settings on record: Trypanosoma cruzi, TULAHUEN, Fibroblast.
The subject of test [3] is Trypanosoma brucei Lister 427 strain, bloodstream form. Put plainly: Assay for proliferation of kinetoplastid parasite Trypanosoma brucei (Cell Titer Glo, 48 hours). The class given is cell-based. The settings on record: Trypanosoma brucei, T. brucei Lister 427 bloodstream form; read-out: T. brucei EC50. The method in brief: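 Bloodstream-form T. brucei Lister 427 in HMI-9 medium was exposed to compound (DMSO vehicle) for 48 hours at 37° C, 5% CO2. Parasite growth was read as ATP by CellTiter-Glo luminescence, with EC50 calculated from percent inhibition.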
(ATP-based viability assays read luminescence as a measure of living cells.)

Test [4] concerns Leishmania donovani axenic amastigote parasites. Put plainly: Leishmania donovani axenic amastigote proliferation assay (Cell TiterGlo luminescence, 2 day incubation). The format is cell-based. The conditions noted are these: Leishmania donovani, L. donovani axenic amastigotes; read-out: L. donovani amastigotes EC50.
Setting [5] is: T. cruzi amastigotes in 3T3 fibroblast cells, read-out: T cruzi EC50.

Read-outs that look alike come from different tables or passages of the source.

`CC(C)OC(=O)N(C)c1cnc2nc(-c3cc(NC(=O)c4ccc(Cl)o4)ccc3F)cn2c1` [Compound 550, isopropyl (2-(5-(5-chlorofuran-2-carboxamido)-2-fluorophenyl)imidazo[1,2-a]pyrimidin-6-yl)(methyl)carbamate]: the EC50 (commonly the midpoint of the concentration-response curve) in test [1] is 0.516 µM; in test [2] (setting [5]) it was 0.042 µM; in test [3], 0.078 µM; in test [4], 0.176 µM.
Consider `CC(C)OC(=O)N(C)c1cnc2nc(-c3cc(N(C)C(=O)c4ccc(Cl)o4)ccc3F)cn2c1` [Compound 551, isopropyl (2-(5-(5-chloro-N-methylfuran-2-carboxamido)-2-fluorophenyl)imidazo[1,2-a]pyrimidin-6-yl)(methyl)carbamate], for which the EC50 in test [1] was 6.94 µM; in test [2] (setting [5]), 3.28 µM; in test [3], 9.32 µM; in test [4], 11 µM.
For `Cc1nc(C)c(C(=O)Nc2ccc(F)c(-c3cn4cc(N(C)C(=O)OC(C)C)cnc4n3)c2)o1` [Compound 552], the EC50 is 0.967 µM in test [1], 0.326 µM in test [2] (setting [5]), 0.24 µM in test [3] and 0.42 µM in test [4].
Take `Cc1nc(C)c(C(=O)N(C)c2ccc(F)c(-c3cn4cc(N(C)C(=O)OC(C)C)cnc4n3)c2)o1` [Compound 553]: the EC50 in test [1] is 3.61 µM; in test [2] (setting [5]) it was 3.11 µM; in test [3] it was 4.29 µM; in test [4] it was 3.48 µM.
As for `COCN(C(=O)OC(C)C)c1cnc2nc(-c3cc(NC(=O)c4oc(C)nc4C)ccc3F)cn2c1` [Compound 554], the EC50 turned out to be 1.85 µM in test [1], 1.51 µM in test [2] (setting [5]), 0.664 µM in test [3] and 0.814 µM in test [4].
`COCCN(C(=O)OC(C)C)c1cnc2nc(-c3cc(NC(=O)c4oc(C)nc4C)ccc3F)cn2c1` [Compound 555]: the half-maximal effective concentration (EC50) is 5.47 µM in test [1], 1.32 µM in test [2] (setting [5]), 1.57 µM in test [3] and 3.11 µM in test [4].
As for `CCCC(=O)OCN(C(=O)OC(C)C)c1cnc2nc(-c3cc(NC(=O)c4oc(C)nc4C)ccc3F)cn2c1` [Compound 556], the half-maximal effective concentration (EC50) turned out to be 0.099 µM in test [1], 0.313 µM in test [2] (setting [5]), 0.07 µM in test [3] and 0.063 µM in test [4].
As to `CC(C)OC(=O)Nc1cnc2nc(-c3cc(NCC(=O)N4CCCC4)ccc3F)cn2c1` [Compound 560], the EC50 was found to be 29.7 µM in test [1], 12.1 µM in test [2] (read-out: T cruzi EC50 (μM)), 5.65 µM in test [3] and 9.84 µM in test [4].
As to `CC(C)OC(=O)N(C)c1cnc2nc(-c3cc(NC(=O)c4ccco4)ccc3Cl)cn2c1` [Compound 561, isopropyl (2-(2-chloro-5-(furan-2-carboxamido)phenyl)imidazo[1,2-a]pyrimidin-6-yl)(methyl)carbamate], the EC50 in test [1] was determined as 2.14 µM; in test [2] (setting [5]), 0.139 µM; in test [3], 0.286 µM; in test [4], 0.74 µM.
Turning to `O=C(Nc1ccc(F)c(-c2cn3cc(OCCN4CCOCC4)cnc3n2)c1)N1CCCC1` [Compound 563], the EC50 in test [1] is 8.5 µM; in test [2] (setting [5]), 6.7 µM; in test [3], above 50 µM; in test [4], 14.2 µM.
Take `CC(C)Nc1cnc2nc(-c3cc(NC(=O)N4CCC4)ccc3F)cn2c1` [Compound 564]: the EC50 in test [1] is 0.29 µM; in test [2] (setting [5]), 0.204 µM; in test [3], 0.056 µM; in test [4], 0.212 µM.
As for `O=C(Nc1ccc(Cl)c(-c2cn3cc(C4=CCNCC4)cnc3n2)c1)N1CCCC1` [Compound 570, N-(4-chloro-3-(6-(1,2,3,6-tetrahydropyridin-4-yl)imidazo[1,2-a]pyrimidin-2-yl)phenyl)pyrrolidine-1-carboxamide], the EC50 in test [1] stood at 13.6 µM; in test [2] (setting [5]) it was 1.99 µM; in test [3], 0.248 µM; in test [4] it was 1.82 µM.
For the compound `Cc1nc(C)c(C(=O)Nc2ccc(F)c(-c3cn4cc(-c5ccc[nH]5)cnc4n3)c2)o1` [Compound 573], the EC50 in test [1] was determined as 0.168 µM; in test [2] (setting [5]), 0.462 µM; in test [3] it was 0.107 µM; in test [4] it was 0.155 µM.
With `O=C(Nc1ccc(Cl)c(-c2cn3cc(-c4ccc(OC5CCNCC5)cc4)cnc3n2)c1)N1CCCC1` [Compound 574], the half-maximal effective concentration (EC50) in test [1] stood at 0.886 µM; in test [2] (setting [5]), 0.436 µM; in test [3] it was 0.46 µM; in test [4] it was 0.744 µM.
On the same counts, the results for `Nc1cnc2nc(-c3cc(NC(=O)c4ccc(F)o4)ccc3Cl)cn2c1` [Compound 577, N-(3-(6-aminoimidazo[1,2-a]pyrimidin-2-yl)-4-chlorophenyl)-5-fluorofuran-2-carboxamide] are above 50 µM, 2.34 µM, 1.35 µM and 2.99 µM.
For `C=Cc1cnc2nc(-c3cc(NC(=O)c4oc(C)nc4C)ccc3F)cn2c1` [Compound 581, N-(4-fluoro-3-(6-vinylimidazo[1,2-a]pyrimidin-2-yl)phenyl)-2,4-dimethyloxazole-5-carboxamide], the concentration for a half-maximal effect (EC50) in test [1] worked out at 0.249 µM; in test [2] (setting [5]), 0.11 µM; in test [3], 0.101 µM; in test [4] it was 0.169 µM.
`CCNc1cnc2nc(-c3cc(NC(=O)c4oc(C)nc4C)ccc3F)cn2c1` [Compound 582, N-(3-(6-(ethylamino)imidazo[1,2-a]pyrimidin-2-yl)-4-fluorophenyl)-2,4-dimethyloxazole-5-carboxamide]: the concentration for a half-maximal effect (EC50) in test [1] turned out to be 0.928 µM; in test [2] (setting [5]), 0.466 µM; in test [3], 0.476 µM; in test [4], 0.585 µM.
Regarding `CN(C)C(=O)Nc1ccc(F)c(-c2cn3cc(N(C)C)cnc3n2)c1` [Compound 583, 3-(3-(6-(dimethylamino)imidazo[1,2-a]pyrimidin-2-yl)-4-fluorophenyl)-1,1-dimethylurea], the concentration giving a half-maximal response (EC50) is 1.79 µM in test [1], 0.377 µM in test [2] (setting [5]), 0.139 µM in test [3] and 0.869 µM in test [4].
`Cc1cccnc1-c1cnc2nc(-c3cc(N)ccc3F)cn2c1` [Compound 594, 4-fluoro-3-(6-(3-methylpyridin-2-yl)imidazo[1,2-a]pyrimidin-2-yl)aniline]: the EC50 is above 32.8 µM in test [1], above 19.9 µM in test [2] (setting [5]), above 50 µM in test [3] and above 25 µM in test [4].
On the same counts, the results for `COC1CCC(C(=O)Nc2ccc(F)c(-c3cn4cc(C5CC5)cnc4n3)c2)CC1` (stereo not shown) [Compound 597] are 17.1 µM, 16 µM, 31.4 µM and 24.1 µM.
Consider `O=C(Nc1ccc(F)c(-c2cn3cc(C4CC4)cnc3n2)c1)[C@H]1CC[C@@H](O)CC1` [Compound 598], for which the EC50 in test [1] was found to be 10.3 µM; in test [2] (setting [5]), 2.55 µM; in test [3], 4.36 µM; in test [4], 2.77 µM.
On the same counts, the results for `O=C1CCC(C(=O)Nc2ccc(F)c(-c3cn4cc(C5CC5)cnc4n3)c2)C1` (stereo not shown) [Compound 599] are 0.639 µM, 3.93 µM, 3.3 µM and 2.69 µM.
As to `O=C(Nc1ccc(F)c(-c2cn3cc(C4CC4)cnc3n2)c1)C1COCCO1` (stereo not shown) [Compound 600], the half-maximal effective concentration (EC50) in test [1] was above 50 µM; in test [2] (setting [5]) it was 1.75 µM; in test [3], 1.78 µM; in test [4] it was 1.46 µM.
For the compound `CN1CCOC(C(=O)Nc2ccc(F)c(-c3cn4cc(C5CC5)cnc4n3)c2)C1` (stereo not shown) [Compound 601], the concentration giving a half-maximal response (EC50) in test [1] was 4.04 µM; in test [2] (setting [5]), above 20 µM; in test [3] it was above 50 µM; in test [4], above 25 µM.
Consider `CC(C)(C)OC(=O)N1CCOC(C(=O)Nc2ccc(F)c(-c3cn4cc(C5CC5)cnc4n3)c2)C1` (stereo not shown) [Compound 602], for which the 50% effective concentration (EC50) in test [1] is above 50 µM; in test [2] (setting [5]), 13.6 µM; in test [3], above 50 µM; in test [4], above 25 µM.
On to `CC(C)(C)OC(=O)N1CCOCC1C(=O)Nc1ccc(F)c(-c2cn3cc(C4CC4)cnc3n2)c1` (stereo not shown) [Compound 603], for which the EC50 in test [1] worked out at 12.7 µM; in test [2] (setting [5]), 5.84 µM; in test [3] it was 8.17 µM; in test [4], 17.8 µM.
`O=C(Nc1ccc(F)c(-c2cn3cc(C4CC4)cnc3n2)c1)N1CC(F)(F)C1` [Compound 604]: the 50% effective concentration (EC50) turned out to be 0.041 µM in test [1], 0.046 µM in test [2] (setting [5]), 0.051 µM in test [3] and 0.022 µM in test [4].
As for `O=C(Nc1ccc(F)c(-c2cn3cc(C4CC4)cnc3n2)c1)N1CC[C@@H](F)C1` [Compound 605], the EC50 in test [1] came out at 0.059 µM; in test [2] (setting [5]), 0.016 µM; in test [3], 0.013 µM; in test [4], 0.021 µM.
For the compound `[2H]C([2H])([2H])N(C(=O)Nc1ccc(F)c(-c2cn3cc(C4CC4)cnc3n2)c1)C([2H])([2H])[2H]` [Compound 606], the EC50 in test [1] was determined as 3.2 µM; in test [2] (setting [5]), 0.38 µM; in test [3], 0.267 µM; in test [4], 0.545 µM.
As for `COc1cnc2nc(-c3cc(NC(=O)c4oc(C)nc4C)ccc3F)cn2c1` [Compound 607], the half-maximal effective concentration (EC50) in test [1] stood at 0.443 µM; in test [2] (setting [5]) it was 0.437 µM; in test [3], 1.04 µM; in test [4] it was 0.705 µM.
On the same counts, the results for `Cc1nc(C)c(C(=O)Nc2ccc(F)c(-c3cn4cc(OC(C)C)cnc4n3)c2)o1` [Compound 608, N-(4-fluoro-3-(6-isopropoxyimidazo[1,2-a]pyrimidin-2-yl)phenyl)-2,4-dimethyloxazole-5-carboxamide] are 0.456 µM, 0.132 µM, 0.159 µM and 0.127 µM.
